{
  "source": "patent US6967100B2",
  "about": "“Pancreatic islet cell growth factors” (The Walter and Eliza Hall Institute of Medical Research, priority 2000, dated 2005)",
  "key": {"[1]": {"test_system": "13.5 dpc fetal mouse pancreas cells", "assay": "Low cell density serum-free culture of 13.5 dpc fetal mouse pancreatic cells: total and insulin-positive β cell number", "format": "cell-based", "details": "for laminin-1 induced/mediated β cell differentiation: with laminin-1, four days", "description": "(§1) Dissociated fetal pancreas cells were prepared from 13.5 dpc CBA mice. Pregnant mice at 13.5 dpc were killed by cervical dislocation and fetuses collected into ice cold sterile mouse tonicity phosphate-buffered saline (MTPBS). Fetal pancreata were harvested under an Olympus dissection microscope into RPMI 1640 medium and dissociated in a shaking water bath at 37° C. for 11 mins in Ca^2+/Mg^2+-free PBS containing 0.5% v/v trypsin/EDTA as described for testis by Bucci et al. (1986). After dissociation, trypsin was inactivated by addition of 8% w/v bovine serum albumin (BSA, fraction V) (Sigma, St. Louis, USA). The tissue was aspirated several times in a pipette, passed through a 27 gauge needle to make a single cell suspension and then rinsed in 10 μg/ml DNAse I (Promega, Madison, USA) in RPMI 1640 for 10 mins to reduce cellular aggregates. Cell suspensions were filtered through a 70-100 μm steel mesh, centrifuged at 400×g for 5 mins and the supernatant discarded. The cell pellet was resuspended in HYBRIDOMA medium and stored on ice. Cells were counted under a haemocytometer and viability was determined by exclusion of 0.2% v/v trypan blue dye. Pancreatic cells were plated in 8 chamber slides (Nunc) at 1.5×10^4 cells/well in 0.3 ml HYBRIDOMA medium 500 UI/ml penicillin and 500 μg/ml streptomycin. The cells were cultured in 10% v/v CO2, 90% v/v air at 37° C. with 100% humidity for four days in the presence of factors such as laminin-1 and BMPs.\nFetuses at 15.5 and 18.5 dpc from homozygous (−/−) or heterozygous (+/−) α6 integrin gene targeted (Georges-Labouesse et al., 1996) or wild type mice were fixed overnight in Bouin ? s solution. After standard dehydration processing, fetuses were embedded into paraffin and sectioned at 7 μm. Cultured pancreatic cells were washed three times with warm mouse tonicity phosphate buffered saline (MT-PBS) and fixed with 4% paraformaldehyde (PFA) for 10 mins. Endogenous peroxidase was blocked by 3% v/v H2O2 in methanol for 8 mins. Prior to antibody staining, non-specific protein binding was blocked by incubation for at least 30 mins with MT-PBS containing 2% w/v bovine serum albumin or 2% v/v normal rabbit serum. Controls were performed by replacing first antibody with pre-immune serum from the appropriate species. Cell were incubated with primary antibodies for 90 mins at room temperature, followed by three thorough washes with MT-PBS. Horseradish peroxidase-conjugated rabbit anti-guinea pig or swine anti-rabbit immunoglobulins (Dako) were added for 30 mins at room temperature followed by thorough washes. Immunoperoxidase was detected with 3,3′-diamninobenzidine/H2O2 for 4-8 mins, and slides were counterstained with haematoxylin.\nImmunoperoxidase positive and negative cells were quantitated in the central strip of each culture chamber (a 90×90 mm square) under a microscope equipped with an eyepiece graticule (Olympus, Japan) at ×40 power and calibrated with a micrometer (Olympus). All data are presented as mean±s.e.m of at least three independent experiments."}, "[2]": {"test_system": "13.5 dpc fetal mouse pancreas cells", "assay": "Colony formation of 13.5 dpc fetal mouse pancreas cells cultured with BMPs and laminin-1", "format": "cell-based", "details": "13.5 dpc fetal pancreas cells", "description": "as §1\n(§2) After four days in culture, cells were washed twice with warm MT-PBS and fixed with a 4% v/v paraformaldehye for 10 mins. In some cases, 100 μM BrdU was added to label proliferating cells 12 hours before fixation and detection with monoclonal antibody to BrdU and FITC-labelled rabbit anti-mouse immunoglobulin. For immunoperoxidase staining, endogenous peroxidase was blocked by 3% v/v H2O2 in methanol for 8 mins and, prior to addition of primary antibody, non-specific protein binding was blocked by incubation for at least 30 mins in MTPBS containing 2% w/v BSA or 2% v/v normal rabbit serum. Controls were performed by replacing primary antibody with pre-immune serum from the appropriate species. Tissue sections or cells were incubated with primary antibodies for 90 min RT, followed by three thorough washes with MTPBS. For immunoperoxidase staining, horseradish peroxidase-conjugated rabbit anti-guinea pig, swine anti-rabbit or rabbit anti-mouse immunoglobulins (Dako) diluted 1:80 were added for 30 mins at RT followed by thorough washes; colour was developed with 3,3′-diaminobenzidine/H2O2 for 4-8 mins and slides counterstained with haematoxylin.\nA pancreatic cell colony was defined as a spherical collection of 20 cells. Colonies were counted under a×10 power objective with an eyepiece graticule."}, "[3]": {"test_system": "E15.5 CBA mouse fetal pancreas cells", "assay": "Cystic colony formation of E15.5 fetal mouse pancreas cells in laminin-1 overlay culture", "format": "cell-based", "description": "Pancreata were dissected from embryonic day (E)15.5 CBA mouse fetuses and dissociated into single cells as described (Jiang et al., 1999). Briefly, dissected pancreas was digested with trypsin/EDTA for 15 minutes at 37° C. in a shaking water bath. Cells were counted in a haemocytometer and viability determined by trypan blue dye exclusion. Each fetal pancreas yielded 50,000 viable cells (48,509±11,299, n=14). Dissociated cells were plated in 8 well chamber slides (Nunc, Naperville, USA) at 7.5×10^4 cells/well in 0.3 ml AIM V medium supplemented with N-2 (1:100, Gibco BRL Life Technologies, Gaithersburg, USA), 500 UI/ml penicillin and 500 μg/ml streptomycin. Laminin-1 (160 μg/ml), purified from murine Engelbreth-Holm-Swarm tumor basement membrane (Becton Dickinson Labware, Bedford, USA), was overlayed on cells in the presence of various growth factors. Cultures were incubated in 10% CO2 90% air at 37° C., for up to 6 days. Recombinant human BMP 6 and BMP 5, recombinant human TGF-β1 and recombinant activin A were purchased from R&D Systems (Minneapolis, USA). These factors, dissolved at a concentration of 10 ng/μl in mouse tonicity phosphate buffered saline (PBS) containing 0.1% w/v bovine serum albumin (BSA), were added at the start of culture. Phase contrast images of colonies were photographed with Olympus IX70 digitized camera.\nColony formation was assessed at day 6 of culture. A colony was defined as a cellular sphere ≧30 μm in diameter, which contained more than 20 cells. The number of colonies per well was counted directly under a inverted microscope at ×10. Colony counts were performed using a blind design."}, "[4]": {"test_system": "13.5 dpc fetal mouse pancreas cells", "assay": "BrdU labelling of proliferating cells in 13.5 dpc fetal mouse pancreas cell culture", "format": "cell-based", "details": "100 μM BrdU, laminin-1 (200 μg/ml), with or without GoH3, days 1-4", "description": "as §2, with “For immunoperoxidase staining, horseradish peroxidase-conjugated rabbit anti-guinea pig, swine anti-rabbit or rabbit anti-mouse immunoglobulins (Dako) diluted 1:80 were added for 30 mins at RT followed by thorough washes; colour was developed with 3,3′-diaminobenzidine/H2O2 for 4-8 mins and slides counterstained with haematoxylin.” left out\nIn some cultures, 100 μM BrdU (Sigma) was included to label proliferating cells; cells were fixed by 4% PFA at days 1, 2, 3 and 4 for insulin and BrdU double immunofluorescence staining. […] Slides were observed and photomicrographed under a Zeis Axiopot fluorescence microscope."}, "α6 integrin and α-DG": {"test_system": "α6 integrin and α-DG", "assay": "Indirect immunofluorescence for α6 integrin and α-DG expression in cultured fetal pancreas cells", "format": "cell-based, mouse", "details": "day 2 (laminin-1 alone: day 2 and four)", "description": "In some cultures, 100 μM BrdU (Sigma) was included to label proliferating cells; cells were fixed by 4% PFA at days 1, 2, 3 and 4 for insulin and BrdU double immunofluorescence staining. Fetuses were directly snap-frozen in liquid nitrogen, section at 8 μm, the sections air-dried for 40-60 mins and fixed in cold (−20° C.) acetone for 10 mins. Pre-treatment and primary antibody incubations were as described above, followed by incubation with Texas Red-conjugated goat anti-guinea pig immunoglobulins (Vector Laboratories, Burlingame, USA) or fluorescein isothiocyanate (FITC)-conjugated rabbit anti-mouse, -rat or -goat or swine anti-rabbit immunoglobulins (Dako) for 30 mins at room temperature and three thorough washes. Slides were observed and photomicrographed under a Zeis Axiopot fluorescence microscope."}},
  "data": [
    {"molecule": "C=C1[C@@H](C)[C@H]2[C@H](Cc3ccccc3)NC(=O)[C@]23[C@H](OC(C)=O)/C=C/[C@@](C)(O)C(=O)[C@@H](C)C/C=C/[C@H]3[C@@H]1O", "note": "[Cytochalasin D]", "values": [
      {"measurement": "laminin-1 induced/mediated β cell differentiation", "setting": "[1]", "value": "increased"}
    ]},
    {"molecule": "COc1cccc(-c2cc(=O)c3ccccc3o2)c1N", "note": "[PD98059]", "values": [
      {"measurement": "laminin-1 induced/mediated β cell differentiation", "setting": "[1]", "value": "increased"}
    ]},
    {"molecule": "O=c1c(-c2ccc(O)cc2)coc2cc(O)cc(O)c12", "note": "[genistein]", "values": [
      {"measurement": "laminin-1 induced/mediated β cell differentiation", "setting": "[1]", "value": "did not affect"}
    ]},
    {"molecule": "CO[C@H]1[C@@H](OC)C[C@H](C)[C@@H](OC)C2=CC(=O)C=C(NC(=O)/C(C)=C/C=C\\[C@H](OC)[C@@H](OC(N)=O)/C(C)=C/[C@@H]1C)C2=O", "note": "[herbimycin A]", "values": [
      {"measurement": "laminin-1 induced/mediated β cell differentiation", "setting": "[1]", "value": "did not affect"}
    ]},
    {"molecule": "EGF: candidate growth factor (NSDSECPLSHDGYCLHDGVCMYIEALDKYACNCVVGYIGERCQYRDLKWWELR; Epidermal growth factor; UniProt P01133 971-1023, looked up)", "values": [
      {"measurement": "proliferation or colony formation, candidate growth factors individually", "setting": "[2]", "value": "unable to promote proliferation or colony formation"}
    ]},
    {"molecule": "HGF: candidate growth factor", "values": [
      {"measurement": "proliferation or colony formation, candidate growth factors individually", "setting": "[2]", "value": "unable to promote proliferation or colony formation"}
    ]},
    {"molecule": "PYY: candidate growth factor", "values": [
      {"measurement": "proliferation or colony formation, candidate growth factors individually", "setting": "[2]", "value": "unable to promote proliferation or colony formation"}
    ]},
    {"molecule": "TGF-β1: recombinant human TGF-β1 from R&D Systems", "values": [
      {"measurement": "BMP 6-induced colony formation", "setting": "[3]; 100 ng/ml against BMP 6 10 ng/ml, laminin-1 160 μg/ml, p<0.01 (FIG. 10B)", "value": "antagonized"},
      {"measurement": "colony formation relative to laminin-1 alone", "setting": "[3]; 100 ng/ml, laminin-1 160 μg/ml (FIG. 10A)", "value": "suppressed colony formation to levels below that observed with laminin-1 alone"},
      {"measurement": "potency of inhibition of BMP 6-induced colony numbers relative to Activin A", "setting": "[3]; dose-dependency of inhibition, BMP 6 10 ng/ml (FIG. 10C)", "value": 100, "unit": "fold"}
    ]},
    {"molecule": "fibronectin", "values": [
      {"measurement": "inhibition of pancreatic / β cell survival", "setting": "[1]; four days culture, compared to medium alone", "value": "no effect"}
    ]},
    {"molecule": "gastrin", "values": [
      {"measurement": "proliferation or colony formation, candidate growth factors individually", "setting": "[2]", "value": "unable to promote proliferation or colony formation"}
    ]},
    {"molecule": "heparin", "values": [
      {"measurement": "effect on the GoH3-induced increase in β cell differentiation", "setting": "[1]; heparin at 100 μM, laminin-1 plus GoH3", "value": "blocked the effect of α6 integrin antibody GoH3"},
      {"measurement": "number of total and β cells", "setting": "[1]; with laminin-1, heparin at 100 μM, p<0.05", "value": "significantly decreased"}
    ]},
    {"molecule": "laminin-1: heterotrimeric matrix glycoprotein prepared from murine Englebreth-Holm-Swarm tumour cell basement membrane", "values": [
      {"measurement": "glucagon-positive cell number", "setting": "[1]; in the presence of soluble laminin-1", "value": "unchanged"},
      {"measurement": "total cell number per well", "setting": "[1]; laminin-1 without or with 40 μg/ml GoH3, mean±s.e.m", "value": "4016±650"},
      {"measurement": "β cell number per well", "setting": "[1]; laminin-1 without or with 40 μg/ml GoH3, mean±s.e.m n=3", "value": "2265±240"},
      {"measurement": "increase in number of insulin-positive β cells", "setting": "[1]; soluble laminin-1, four days culture", "value": 60, "unit": "fold"},
      {"measurement": "BrdU-positive cells", "setting": "[4]", "value": 2.5, "unit": "%"},
      {"measurement": "proportion of cells positive for both α6 integrin and α-DG", "setting": "α6 integrin and α-DG", "value": "approximately 10%"}
    ]}
  ]
}
